Among the data in the supplement of paper PMC10307832 are relative viability values, retold here.

Assay in all cases: relative viability (nuclei count vs DMSO), 5 days (fraction); higher = more cells survive
Compound in the assay “Dactolisib + Trametinib”: Cn1c(=O)n(-c2ccc(C(C)(C)C#N)cc2)c2c3cc(-c4cnc5ccccc5c4)ccc3ncc21 [Dactolisib] + CC(=O)Nc1cccc(-n2c(=O)n(C3CC3)c(=O)c3c(Nc4ccc(I)cc4F)n(C)c(=O)c(C)c32)c1 [Trametinib] (partner 0.02 µM)
The essentials:
(§1)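 Each reported value is a median over duplicate plates. It expresses relative viability: treated-well nuclei count divided by vehicle-well nuclei count. Lung cancer cell lines in 1536-well plates were dosed by pin tool a day after seeding, alone with one drug or with a fixed anchor-drug dose plus five library-drug doses (not always all listed) in √10 steps, and nuclei were counted after 5 days.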

Compound in the assay “Dactolisib + OSI-027”: Cn1c(=O)n(-c2ccc(C(C)(C)C#N)cc2)c2c3cc(-c4cnc5ccccc5c4)ccc3ncc21 [Dactolisib] + COc1cccc2cc(-c3nc([C@H]4CC[C@H](C(=O)O)CC4)n4ncnc(N)c34)[nH]c12 [OSI-027] (partner 0.5 µM)
Put shortly:
as §1

Compound in the assay “Dactolisib + Crizotinib”: Cn1c(=O)n(-c2ccc(C(C)(C)C#N)cc2)c2c3cc(-c4cnc5ccccc5c4)ccc3ncc21 [Dactolisib] + C[C@@H](Oc1cc(-c2cnn(C3CCNCC3)c2)cnc1N)c1c(Cl)ccc(F)c1Cl [Crizotinib] (partner 1 µM)
Put shortly: as §1

Compound in the assay “AZ505 + Olaparib”: C1CCC(CC1)N(CCNCCC2=C3C(=C(C=C2)O)NC(=O)CO3)C(=O)CCNCCC4=CC(=C(C=C4)Cl)Cl [AZ505] + O=C(c1cc(Cc2n[nH]c(=O)c3ccccc23)ccc1F)N1CCN(C(=O)C2CC2)CC1 [Olaparib] (partner 8 µM)
The essentials: as §1

Regarding NCI-H3122, the relative viability is 0.207 in the assay with Dactolisib + Trametinib (first compound 0.002 µM); 0.218 with Dactolisib + Trametinib (first compound 0.006325 µM); 0.232 with Dactolisib + Trametinib (first compound 0.02 µM); 0.219 with Dactolisib + Trametinib (first compound 0.06325 µM); 0.176 with Dactolisib + Trametinib (first compound 0.2 µM); 0.903 with Dactolisib + OSI-027 (first compound 0.002 µM). Moreover, the relative viability in the assay with Dactolisib + OSI-027 (first compound 0.006325 µM) stood at 0.976; in the assay with Dactolisib + OSI-027 (first compound 0.02 µM) it was 0.948; in the assay with Dactolisib + OSI-027 (first compound 0.06325 µM), 0.739; with Dactolisib + OSI-027 (first compound 0.2 µM) it was 0.373; with Dactolisib + Crizotinib (first compound 0.002 µM), 0.284; in the assay with Dactolisib + Crizotinib (first compound 0.006325 µM) it was 0.297. For the same cell line, the relative viability with Dactolisib + Crizotinib (first compound 0.02 µM) was 0.228; with Dactolisib + Crizotinib (first compound 0.06325 µM), 0.213; with Dactolisib + Crizotinib (first compound 0.2 µM), 0.217; in the assay with AZ505 + Olaparib (first compound 0.08 µM), 0.617; with AZ505 + Olaparib (first compound 0.253 µM), 0.689; with AZ505 + Olaparib (first compound 0.8 µM) it was 0.618. In addition, the results for the relative viability in the assay with AZ505 + Olaparib (first compound 2.53 µM) and with AZ505 + Olaparib (first compound 8 µM) were 0.629 and 0.622, respectively.
As for NCI-H1975, the relative viability came to 0.36 in the assay with Dactolisib + Trametinib (first compound 0.002 µM); 0.292 in the assay with Dactolisib + Trametinib (first compound 0.006325 µM); 0.323 in the assay with Dactolisib + Trametinib (first compound 0.02 µM); 0.191 with Dactolisib + Trametinib (first compound 0.06325 µM); 0.161 with Dactolisib + Trametinib (first compound 0.2 µM); 0.676 in the assay with Dactolisib + OSI-027 (first compound 0.002 µM). Also, the relative viability in the assay with Dactolisib + OSI-027 (first compound 0.006325 µM) was 0.676; with Dactolisib + OSI-027 (first compound 0.02 µM), 0.591; in the assay with Dactolisib + OSI-027 (first compound 0.06325 µM), 0.297; with Dactolisib + OSI-027 (first compound 0.2 µM) it was 0.244; with Dactolisib + Crizotinib (first compound 0.002 µM), 1.18; in the assay with Dactolisib + Crizotinib (first compound 0.006325 µM), 0.948. In addition, the relative viability with Dactolisib + Crizotinib (first compound 0.02 µM) is 0.7; with Dactolisib + Crizotinib (first compound 0.06325 µM), 0.358; with Dactolisib + Crizotinib (first compound 0.2 µM), 0.34; with AZ505 + Olaparib (first compound 0.08 µM), 0.747; in the assay with AZ505 + Olaparib (first compound 0.253 µM) it was 0.883; with AZ505 + Olaparib (first compound 0.8 µM), 0.75. Besides, the relative viability in the assay with AZ505 + Olaparib (first compound 2.53 µM) was determined as 0.775; in the assay with AZ505 + Olaparib (first compound 8 µM), 0.904.
Turning to NCI-H1944, the relative viability in the assay with Dactolisib + Trametinib (first compound 0.002 µM) is 0.429; with Dactolisib + Trametinib (first compound 0.006325 µM), 0.408; in the assay with Dactolisib + Trametinib (first compound 0.02 µM), 0.364; with Dactolisib + Trametinib (first compound 0.06325 µM) it was 0.23; with Dactolisib + Trametinib (first compound 0.2 µM), 0.22; with Dactolisib + OSI-027 (first compound 0.002 µM), 0.467. Besides, the relative viability with Dactolisib + OSI-027 (first compound 0.006325 µM) was 0.418; with Dactolisib + OSI-027 (first compound 0.02 µM) it was 0.418; in the assay with Dactolisib + OSI-027 (first compound 0.06325 µM) it was 0.281; with Dactolisib + OSI-027 (first compound 0.2 µM) it was 0.195; with Dactolisib + Crizotinib (first compound 0.002 µM) it was 1.18; in the assay with Dactolisib + Crizotinib (first compound 0.006325 µM) it was 1.06. Also, the relative viability was found to be 1.03 with Dactolisib + Crizotinib (first compound 0.02 µM); 0.46 with Dactolisib + Crizotinib (first compound 0.06325 µM); 0.392 with Dactolisib + Crizotinib (first compound 0.2 µM); 0.39 with AZ505 + Olaparib (first compound 0.08 µM); 0.411 in the assay with AZ505 + Olaparib (first compound 0.253 µM); 0.497 in the assay with AZ505 + Olaparib (first compound 0.8 µM). The relative viability in the assay with AZ505 + Olaparib (first compound 2.53 µM) turned out to be 0.413; in the assay with AZ505 + Olaparib (first compound 8 µM), 0.423.
Regarding LU99A, the relative viability with Dactolisib + Trametinib (first compound 0.002 µM) amounted to 0.527; in the assay with Dactolisib + Trametinib (first compound 0.006325 µM), 0.493; in the assay with Dactolisib + Trametinib (first compound 0.02 µM), 0.4; with Dactolisib + Trametinib (first compound 0.06325 µM), 0.286; with Dactolisib + Trametinib (first compound 0.2 µM) it was 0.192; with Dactolisib + OSI-027 (first compound 0.002 µM), 0.294. Further, the relative viability with Dactolisib + OSI-027 (first compound 0.006325 µM) turned out to be 0.327; with Dactolisib + OSI-027 (first compound 0.02 µM), 0.332; with Dactolisib + OSI-027 (first compound 0.06325 µM), 0.314; in the assay with Dactolisib + OSI-027 (first compound 0.2 µM) it was 0.276; with Dactolisib + Crizotinib (first compound 0.002 µM), 0.548; with Dactolisib + Crizotinib (first compound 0.006325 µM), 0.446. Besides, the relative viability turned out to be 0.335 with Dactolisib + Crizotinib (first compound 0.02 µM); 0.272 with Dactolisib + Crizotinib (first compound 0.06325 µM); 0.231 with Dactolisib + Crizotinib (first compound 0.2 µM); 0.279 with AZ505 + Olaparib (first compound 0.08 µM); 0.298 in the assay with AZ505 + Olaparib (first compound 0.253 µM); 0.289 with AZ505 + Olaparib (first compound 0.8 µM). The relative viability in the assay with AZ505 + Olaparib (first compound 8 µM) was 0.265.
